Measured values published in patent publication US11472798B2 (Mission Therapeutics Limited, priority 2014, dated 2022).

Biological target: T1, UCHL1 (Homo sapiens, UniProt P09936)
T1 construct: made in house; host or cells: HEK293T
T1 sequence (P09936 1-223): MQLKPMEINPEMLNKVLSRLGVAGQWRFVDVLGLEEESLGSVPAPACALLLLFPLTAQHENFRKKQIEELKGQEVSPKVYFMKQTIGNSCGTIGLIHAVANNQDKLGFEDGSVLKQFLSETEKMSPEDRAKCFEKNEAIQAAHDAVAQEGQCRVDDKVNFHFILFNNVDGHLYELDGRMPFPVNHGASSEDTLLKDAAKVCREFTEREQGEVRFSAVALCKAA
Assay: UCHL1 biochemical IC50 assay (fluorescence polarisation)
Conditions: 30 min enzyme/compound pre-incubation at room temp, read after 2 hr incubation, read-out: Activity range (UCHL1 biochemical IC50 assay)
Summary of the method: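 FLAG-UCHL1 purified from transfected HEK293T cells was preincubated 30 min at room temperature with compound (8 points, 100–0.03 μM final) in Tris pH 7.5 buffer with Tween 20, BSA and beta-mercaptoethanol. Reaction started with 50 nM TAMRA-peptide–ubiquitin isopeptide substrate; fluorescence polarisation (ex 540/em 590 nm) read at once and after 2 h.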

SMILES | IC50 [nM]
CC(C)C(=O)N1CCc2nc(NC(=O)[C@H]3CCN(C#N)C3)sc2C1 [Example 190, (S)-1-cyano-N-(5-isobutyryl-4,5,6,7-tetrahydrothiazolo[5,4-c]pyridin-2-yl)pyrrolidine-3-carboxamide] | < 1000
N#CN1CC[C@H](C(=O)Nc2cc(-c3ccnc4nccn34)ccn2)C1 [Example 252, (S)-1-cyano-N-(4-(imidazo[1,2-a]pyrimidin-5-yl)pyridin-2-yl)pyrrolidine-3-carboxamide] | 1000 to 10000
N#CN1CCC(C(=O)Nc2ccc(-n3ccnc3)cn2)C1 (centres unmarked) [Example 30, N-(5-(1H-imidazol-1-yl)pyridin-2-yl)-1-cyano-pyrrolidine-3-carboxamide] | 10000 to 30000
N#Cc1cccc(-n2cnc(NC(=O)[C@H]3CCN(C#N)C3)c2)c1 [Example 180, (S)-1-cyano-N-(1-(3-cyanophenyl)-1H-imidazol-4-yl)pyrrolidine-3-carboxamide] | < 1000
N#CN1CC[C@H](C(=O)Nc2cc(N3CCCC3)ccn2)C1 [Example 107, (S)-1-cyano-N-(4-(pyrrolidin-1-yl)pyridin-2-yl)pyrrolidine-3-carboxamide] | 1000 to 10000
N#CN1CC[C@@H](C(=O)Nc2ccc(-c3ccccc3)cn2)C1 [Example 71, (R)-1-cyano-N-(5-phenylpyridin-2-yl)pyrrolidine-3-carboxamide] | 10000 to 30000
Cc1cc(-n2cnc(NC(=O)[C@H]3CCN(C#N)C3)c2)ccc1C#N [Example 308, (S)-1-cyano-N--(1-(4-cyano-3-methylphenyl)-1H-imidazol-4-yl)pyrrolidine-3-carboxamide] | < 1000
Cc1noc(C)c1-c1ccn2cc(NC(=O)[C@H]3CCN(C#N)C3)nc2c1 [Example 127, (S)-1-cyano-N-(7-(3,5-dimethylisoxazol-4-yl)imidazo[1,2-a]pyridin-2-yl)pyrrolidine-3-carboxamide] | < 1000
COc1cc(-n2cnc(NC(=O)[C@H]3CCN(C#N)C3)c2)ccc1F [Example 302, (S)-1-cyano-N-(1-(4-fluoro-3-methoxyphenyl)-1H-imidazol-4-yl)pyrrolidine-3-carboxamide] | < 1000
N#CN1CC[C@H](C(=O)Nc2cccc(N3CCCC3)n2)C1 [Example 106, (S)-1-cyano-N-(6-(pyrrolidin-1-yl)pyridin-2-yl)pyrrolidine-3-carboxamide] | 10000 to 30000
CC1CC(C(=O)Nc2ncc(-c3ccccc3)s2)CN1C#N (mixture of isomers) [Example 88, 1-cyano-5-methyl-N-(5-phenylthiazol-2-yl)pyrrolidine-3-carboxamide] | 1000 to 10000
N#CN1CC[C@H](C(=O)Nc2ccn(-c3ccccc3)n2)C1 [Example 45, (S)-1-cyano-N-(1-phenyl-1H-pyrazol-3-yl)pyrrolidine-3-carboxamide] | 10000 to 30000
Cc1ccnc(-n2cnc(NC(=O)[C@H]3CCN(C#N)C3)c2)c1 [Example 174, (S)-1-cyano-N-(1-(4-methylpyridin-2-yl)-1H-imidazol-4-yl)pyrrolidine-3-carboxamide] | < 1000
N#CN1CC[C@H](C(=O)Nc2cn(-c3ccccc3F)cn2)C1 [Example 152, (S)-1-cyano-N-(1-(2-fluorophenyl)-1H-imidazol-4-yl)pyrrolidine-3-carboxamide] | < 1000
N#CN1CC[C@H](C(=O)Nc2nc3c(s2)CN(S(=O)(=O)c2ccccc2)CC3)C1 [Example 204, (S)-1-cyano-N-(5-(phenylsulfonyl)-4,5,6,7-tetrahydrothiazolo[5,4-c]pyridin-2-yl)pyrrolidine-3-carboxamide] | < 1000
N#CN1CC[C@H](C(=O)Nc2cn3cc(C4CC4)ccc3n2)C1 [Example 129, (S)-1-cyano-N-(6-cyclopropylimidazo[1,2-a]pyridin-2-yl)pyrrolidine-3-carboxamide] | < 1000
CN1CCN(c2cnc(NC(=O)C3CCN(C#N)C3)s2)CC1 (centres unmarked) [Example 92, 1-cyano-N-(5-(4-methylpiperazin-1-yl)thiazol-2-yl)pyrrolidine-3-carboxamide] | < 1000
COCCOC(=O)N1CCc2nc(NC(=O)[C@H]3CCN(C#N)C3)sc2C1 [Example 199, 2-methoxyethyl (S)-2-(1-cyanopyrrolidine-3-carboxamido)-6,7-dihydrothiazolo[5,4-c]pyridine-5(4H)-carboxylate] | 1000 to 10000
N#CN1CC[C@H](C(=O)Nc2ncc(C3CCOCC3)s2)C1 [Example 59, (S)-1-cyano-N-(5-(tetrahydro-2H-pyran-4-yl)thiazol-2-yl)pyrrolidine-3-carboxamide] | < 1000
Cc1noc(C)c1-c1ccc2nc(NC(=O)[C@H]3CCN(C#N)[C@H]3C)sc2c1 [Example 133, (2S,3S)-1-cyano-N-(6-(3,5-dimethylisoxazol-4-yl)benzo[d]thiazol-2-yl)-2-methyl-pyrrolidine-3-carboxamide] | < 1000
N#CN1CC[C@H](C(=O)Nc2ncc(N3CCNC(=O)CC3)s2)C1 [Example 101, (S)-1-cyano-N-(5-(5-oxo-1,4-diazepan-1-yl)thiazol-2-yl)pyrrolidine-3-carboxamide] | < 1000
CNC(=O)c1ccc2cnc(NC(=O)[C@H]3CCN(C#N)C3)cc2c1 [Example 260, (S)-3-(1-cyanopyrrolidine-3-carboxamido)-N-methylisoquinoline-6-carboxamide] | 1000 to 10000
Cn1ccc(C(=O)N2CCc3nc(NC(=O)[C@H]4CCN(C#N)C4)sc3C2)n1 [Example 194, (S)-1-cyano-N-(5-(1-methyl-1H-pyrazole-3-carbonyl)-4,5,6,7-tetrahydrothiazolo[5,4-c]pyridin-2-yl)pyrrolidine-3-carboxamide] | < 1000

Next, values leading:

IC50 [nM] | SMILES
1000 to 10000 | N#CN1CCC(C(=O)Nc2ccc(-c3cccnc3)cn2)C1 (centres unmarked) [Example 33, N-([3,3′-bipyridin]-6-yl)-1-cyano-pyrrolidine-3-carboxamide]
1000 to 10000 | N#CN1CCC(C(=O)Nc2ccc(-c3ccccn3)cn2)C1 (centres unmarked) [Example 32, N-([2,3′-bipyridin]-6′-yl)-1-cyano-pyrrolidine-3-carboxamide]
1000 to 10000 | C#Cc1ccc2cnc(NC(=O)[C@H]3CCN(C#N)C3)cc2c1 [Example 263, (S)-1-cyano-N-(6-ethynylisoquinolin-3-yl)pyrrolidine-3-carboxamide]
< 1000 | N#CN1CCC(C(=O)Nc2nc3ccc(C4CC4)cc3s2)C1 (centres unmarked) [Example 130, 1-cyan-N-(6-cyclopropylbenzo[d]thiazol-2-yl)pyrrolidine-3-carboxamide]
1000 to 10000 | Cc1ccccc1-c1ccc(NC(=O)C2CCN(C#N)C2)nc1 (centres unmarked) [Example 136, 1-cyano-N-(5-(o-tolyl)pyridin-2-yl)pyrrolidine-3-carboxamide]
< 1000 | Cc1noc(C)c1-c1ccc2nc(NC(=O)[C@H]3CCN(C#N)C3)sc2n1 [Example 286, (S)-1-cyano-N-(5-(3,5-dimethylisoxazol-4-yl)thiazolo[5,4-b]pyridin-2-yl)pyrrolidine-3-carboxamide]
1000 to 10000 | N#CN1CC[C@H](C(=O)Nc2nc3ccc(-c4ccccc4)cc3s2)C1 [Example 122, (S)-1-cyano-N-(6-phenylbenzo[d]thiazol-2-yl)pyrrolidine-3-carboxamide]
< 1000 | CN(c1ccccc1)c1cnc(NC(=O)C2CCN(C#N)C2)s1 (centres unmarked) [Example 94, 1-cyano-N-(5-(methyl(phenyl)amino)thiazol-2-yl)pyrrolidine-3-carboxamide]
< 1000 | N#Cc1ccc(-c2cnc(NC(=O)[C@H]3CCN(C#N)C3)s2)cc1OC(F)(F)F [Example 219, (S)-1-cyano-N-(5-(4-cyano-3-(trifluoromethoxy)phenyl)thiazol-2-yl)pyrrolidine-3-carboxamide]
< 1000 | Cn1cc(-c2ccc3nc(NC(=O)[C@H]4CCN(C#N)C4)sc3c2)cn1 [Example 124, (S)-1-cyano-N-(6-(1-methyl-1H-pyrazol-4-yl)benzo[d]thiazol-2-yl)pyrrolidine-3-carboxamide]
1000 to 10000 | N#CN1CCC(C(=O)Nc2ncc(-c3cccc(N)c3)s2)C1 (centres unmarked) [Example 110, N-(5-(3-aminophenyl)thiazol-2-yl)-1-cyanopyrrolidine-3-carboxamide]
< 1000 | C#Cc1cccc(-c2cnc(NC(=O)[C@H]3CCN(C#N)C3)s2)c1 [Example 206, (S)-1-cyano-N-(5-(3-ethynylphenyl)thiazol-2-yl)pyrrolidine-3-carboxamide]
1000 to 10000 | Cc1ccc(-c2ccc(NC(=O)C3CCN(C#N)C3)nc2)cc1 (centres unmarked) [Example 134, 1-cyano-N-(5-(p-tolyl)pyridin-2-yl)pyrrolidine-3-carboxamide]
< 1000 | Cc1n[nH]c2cc(-n3cnc(NC(=O)[C@H]4CCN(C#N)C4)c3)ccc12 [Example 299, (S)-1-cyano-N-(1-(3-methyl-1H-indazol-6-yl)-1H-imidazol-4-yl)pyrrolidine-3-carboxamide]
< 1000 | N#CN1CC[C@H](C(=O)Nc2ncc(-c3ccc4[nH]ncc4c3)s2)C1 [Example 223, (S)-N-(5-(1H-indazol-5-yl)thiazol-2-yl)-1-cyanopyrrolidine-3-carboxamide]
1000 to 10000 | COc1ccc2nc(NC(=O)C3CCN(C#N)C3)sc2c1 (centres unmarked) [Example 21, 1-cyano-N-(6-methoxybenzo[d]thiazol-2-yl)pyrrolidine-3-carboxamide]
< 1000 | N#CN1CC[C@H](C(=O)Nc2ncc(-c3cccc(-n4ccnc4)c3)s2)C1 [Example 216, (S)-N-(5-(3-(1H-imidazol-1-yl)phenyl)thiazol-2-yl)-1-cyanopyrrolidine-3-carboxamide]
< 1000 | N#CN1CC[C@H](C(=O)Nc2cc(-c3ccccc3)[nH]n2)C1 [Example 42, (S)-1-cyano-N-(5-phenyl-1H-pyrazol-3-yl)pyrrolidine-3-carboxamide]
